Data as given in patent US9718771B2, “Aniline derivative, pharmaceutical composition containing same, and use thereof” (Kissei Pharmaceutical Co., Ltd., priority 2014, dated 2017).

Tested on: male guinea pigs
Assay: Confirmation test for reduction effects on heart rate
Assay type: in vivo
Details: anesthetized guinea pigs, intravenous (vein of penis), 0.03 mg/kg
From the text: Confirmation Test for Reduction Effects on Heart Rate
Effects on heart rate of a test compound and fingolimod, which is an S1P1 receptor agonist, were confirmed using male guinea pigs (Japan SLC, 5 to 8-weeks-old in use). Guinea pigs were incised in the median line of cervical region under anesthesia with pentobarbital (Kyoritsu Pharmaceutical) by intraperitoneal administration. A PE90 catheter filled with saline (Otsuka Pharmaceutical Factory) containing 50 units/mL heparin (Mochida Pharmaceutical) was inserted to right common carotid artery. By holding the insertion site of the catheter with silk sutures, it was performed to avoid bleeding from the insertion site and to fix the catheter. After it was confirmed that blood flow reached into the catheter, an apical end of catheter opposite to the insertion site of artery was connected to pressure transducer, and blood pressure and heart rate were measured via a strain pressure amplifier and a heart rate counter unit, respectively. […]
After it was confirmed that blood pressure and heart rate were stabilized in guinea pigs, vehicle, the test compound or fingolimod was administered into the vein of penis at 0.25 mL/kg using 1 mL syringes with needles of 27G. The changes of blood pressure and heart rate were measured every 5 minutes after administration of vehicle, the test compound or fingolimod.

CCCCCCCCc1ccc(CCC(N)(CO)CO)cc1 [fingolimod]
effect on heart rate: remarkable reduction of heart rate
